Data from patent publication US6423689B1, “Peptidyl calcium channel blockers” (Warner-Lambert Company, priority 1997, dated 2002).
pIC50: −log10 of the molar value. Blank lines part the entries; values can stand above or below the molecule they belong to.

Columns and labels:
[1] = target: T1, N-type Ca2+ channels in superior cervical ganglion (SCG) neurons (Rattus norvegicus, UniProt Q02294); test: Whole-cell voltage clamp, N-type Ca2+ current in SCG neurons; type: cell-based; settings: for pIC50: read-out: Inhibition of N-type Ca2+ Current IC50
T1 construct: from tissue
T1 sequence (Q02294 whole entry): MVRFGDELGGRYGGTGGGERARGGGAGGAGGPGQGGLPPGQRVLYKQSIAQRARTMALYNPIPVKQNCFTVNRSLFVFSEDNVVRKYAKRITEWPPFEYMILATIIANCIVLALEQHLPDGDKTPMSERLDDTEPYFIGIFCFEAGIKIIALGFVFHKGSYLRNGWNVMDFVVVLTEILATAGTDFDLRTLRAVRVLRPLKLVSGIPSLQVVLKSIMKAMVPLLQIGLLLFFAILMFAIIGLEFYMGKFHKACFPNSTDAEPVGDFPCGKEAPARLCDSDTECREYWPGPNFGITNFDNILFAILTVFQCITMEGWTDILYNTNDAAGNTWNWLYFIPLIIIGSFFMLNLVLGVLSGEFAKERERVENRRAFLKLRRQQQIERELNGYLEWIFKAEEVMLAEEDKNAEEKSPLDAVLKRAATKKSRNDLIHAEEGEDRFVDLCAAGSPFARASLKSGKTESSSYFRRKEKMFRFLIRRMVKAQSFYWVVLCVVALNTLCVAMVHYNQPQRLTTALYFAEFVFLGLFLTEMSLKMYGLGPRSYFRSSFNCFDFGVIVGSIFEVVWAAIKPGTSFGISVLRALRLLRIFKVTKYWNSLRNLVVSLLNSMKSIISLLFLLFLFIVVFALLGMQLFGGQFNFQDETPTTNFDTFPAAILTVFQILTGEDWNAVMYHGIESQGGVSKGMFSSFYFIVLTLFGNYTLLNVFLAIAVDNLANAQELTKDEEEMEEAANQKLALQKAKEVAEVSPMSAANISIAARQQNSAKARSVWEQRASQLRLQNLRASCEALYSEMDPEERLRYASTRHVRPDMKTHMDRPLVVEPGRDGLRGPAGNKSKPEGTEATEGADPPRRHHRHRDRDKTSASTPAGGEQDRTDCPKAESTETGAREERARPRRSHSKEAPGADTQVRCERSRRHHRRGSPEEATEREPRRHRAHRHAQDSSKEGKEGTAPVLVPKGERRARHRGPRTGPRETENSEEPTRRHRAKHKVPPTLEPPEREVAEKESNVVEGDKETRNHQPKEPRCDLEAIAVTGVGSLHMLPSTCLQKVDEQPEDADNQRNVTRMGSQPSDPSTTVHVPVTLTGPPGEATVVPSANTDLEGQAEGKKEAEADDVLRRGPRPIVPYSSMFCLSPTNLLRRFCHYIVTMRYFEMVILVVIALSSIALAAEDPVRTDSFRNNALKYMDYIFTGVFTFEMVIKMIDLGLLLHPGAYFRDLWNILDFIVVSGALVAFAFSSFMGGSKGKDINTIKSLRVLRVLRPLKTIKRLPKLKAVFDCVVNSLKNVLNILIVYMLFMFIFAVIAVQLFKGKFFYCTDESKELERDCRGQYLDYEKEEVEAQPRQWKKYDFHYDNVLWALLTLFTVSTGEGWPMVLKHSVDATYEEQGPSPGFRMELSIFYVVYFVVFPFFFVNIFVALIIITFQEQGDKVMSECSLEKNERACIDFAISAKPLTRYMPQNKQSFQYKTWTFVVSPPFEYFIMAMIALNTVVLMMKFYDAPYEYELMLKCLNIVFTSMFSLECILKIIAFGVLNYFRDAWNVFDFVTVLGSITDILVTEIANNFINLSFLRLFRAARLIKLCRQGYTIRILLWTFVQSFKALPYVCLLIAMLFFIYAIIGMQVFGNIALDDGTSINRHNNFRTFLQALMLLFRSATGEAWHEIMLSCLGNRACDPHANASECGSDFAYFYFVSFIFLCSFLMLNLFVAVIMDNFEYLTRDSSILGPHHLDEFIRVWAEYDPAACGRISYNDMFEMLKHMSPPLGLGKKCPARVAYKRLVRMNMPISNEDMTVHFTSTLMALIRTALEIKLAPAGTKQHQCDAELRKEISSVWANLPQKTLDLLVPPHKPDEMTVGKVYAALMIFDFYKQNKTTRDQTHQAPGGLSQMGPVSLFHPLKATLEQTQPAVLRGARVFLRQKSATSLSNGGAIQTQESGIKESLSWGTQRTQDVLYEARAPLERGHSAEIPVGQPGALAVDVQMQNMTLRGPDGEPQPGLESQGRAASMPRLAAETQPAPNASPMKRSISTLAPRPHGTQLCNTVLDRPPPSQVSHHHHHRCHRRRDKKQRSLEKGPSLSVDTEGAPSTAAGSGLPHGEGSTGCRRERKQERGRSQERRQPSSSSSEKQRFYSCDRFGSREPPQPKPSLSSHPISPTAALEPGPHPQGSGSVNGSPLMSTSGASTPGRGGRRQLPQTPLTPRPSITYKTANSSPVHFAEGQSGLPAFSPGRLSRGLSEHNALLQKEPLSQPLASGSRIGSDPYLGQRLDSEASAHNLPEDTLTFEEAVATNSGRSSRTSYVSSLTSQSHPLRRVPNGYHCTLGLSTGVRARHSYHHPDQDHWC
T1 sequence (P54290 25-944 partner limits assumed): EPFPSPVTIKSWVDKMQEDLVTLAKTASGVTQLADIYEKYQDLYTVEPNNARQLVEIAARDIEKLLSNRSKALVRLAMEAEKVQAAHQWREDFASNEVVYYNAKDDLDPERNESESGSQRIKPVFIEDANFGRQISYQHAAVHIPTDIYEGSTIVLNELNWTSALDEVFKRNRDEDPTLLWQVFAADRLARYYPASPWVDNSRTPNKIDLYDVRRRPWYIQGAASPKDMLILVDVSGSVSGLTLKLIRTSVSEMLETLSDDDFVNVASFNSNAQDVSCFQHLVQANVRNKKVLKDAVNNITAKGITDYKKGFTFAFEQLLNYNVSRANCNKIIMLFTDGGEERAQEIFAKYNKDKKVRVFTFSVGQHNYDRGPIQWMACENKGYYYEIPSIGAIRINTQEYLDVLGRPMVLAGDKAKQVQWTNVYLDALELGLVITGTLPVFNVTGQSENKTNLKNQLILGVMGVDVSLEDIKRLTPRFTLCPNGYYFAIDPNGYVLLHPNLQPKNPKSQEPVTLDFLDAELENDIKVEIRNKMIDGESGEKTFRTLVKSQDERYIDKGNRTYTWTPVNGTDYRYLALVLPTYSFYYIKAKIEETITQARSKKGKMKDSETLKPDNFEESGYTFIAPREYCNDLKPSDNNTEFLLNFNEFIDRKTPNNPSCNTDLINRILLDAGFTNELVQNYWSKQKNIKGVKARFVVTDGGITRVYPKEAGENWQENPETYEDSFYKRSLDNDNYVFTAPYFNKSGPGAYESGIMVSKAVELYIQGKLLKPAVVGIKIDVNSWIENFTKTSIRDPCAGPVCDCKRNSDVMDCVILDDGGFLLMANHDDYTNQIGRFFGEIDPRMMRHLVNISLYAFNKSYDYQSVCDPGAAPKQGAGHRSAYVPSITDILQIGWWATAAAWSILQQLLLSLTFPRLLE
T1 sequence (P54290 945-1091 partner limits assumed): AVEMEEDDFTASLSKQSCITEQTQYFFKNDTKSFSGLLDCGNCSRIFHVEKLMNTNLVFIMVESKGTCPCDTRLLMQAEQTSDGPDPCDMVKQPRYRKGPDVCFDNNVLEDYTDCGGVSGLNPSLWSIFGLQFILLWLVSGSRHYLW
T1 sequence (P54287 whole entry partner): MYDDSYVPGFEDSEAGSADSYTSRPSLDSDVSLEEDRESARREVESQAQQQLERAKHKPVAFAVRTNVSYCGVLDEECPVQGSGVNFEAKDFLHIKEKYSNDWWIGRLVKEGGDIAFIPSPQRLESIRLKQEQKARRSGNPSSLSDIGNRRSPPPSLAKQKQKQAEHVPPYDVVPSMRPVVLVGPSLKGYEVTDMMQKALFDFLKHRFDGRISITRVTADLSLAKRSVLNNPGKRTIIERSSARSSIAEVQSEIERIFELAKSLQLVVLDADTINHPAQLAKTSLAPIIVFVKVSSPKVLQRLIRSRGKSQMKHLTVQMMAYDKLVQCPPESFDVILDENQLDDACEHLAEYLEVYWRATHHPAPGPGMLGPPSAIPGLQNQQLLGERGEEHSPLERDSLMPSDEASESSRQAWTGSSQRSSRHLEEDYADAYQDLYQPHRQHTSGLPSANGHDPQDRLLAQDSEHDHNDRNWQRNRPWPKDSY
Experimental: (§1) Electrophysiological techniques were used to measure the effects of experimental compounds on voltage-gated Ca^2+, Na^+ and K^+ channels. […] Sodium and potassium channel currents were measured from acutely dissociated SCG neurons.
(§2) Dissociation of the neurons from the ganglia was accomplished using a 30 to 45 minute treatment in 0.25% trypsin, similar to methods outlined in Higgins, et al. [see Higgins D., et al. “Tissue culture of mammalian autonomic neurons.” In Banker G. and Goslin K. (Eds), Culturing Nerve Cells, Cambridge, Mass., MIT Press (1991)].
(§3) Ca^2+, Na^+ and K^+ channel currents in SCG neurons were measured using conventional single electrode whole-cell voltage-clamp techniques, outlined in Hamill, et al., (see Hamill O.P., et al. “Improved patch-clamp techniques for high resolution current recordings from cells and cell-free membrane patches”. Pflugers Arch. 1981;391:85-100) For Ca^2+ channel experiments, the external bathing solution contained tetraethylammonium chloride (100 mM), choline chloride (52 mM), NaCl (15 mM), HEPES (10 mM), glucose (5.6 mM), CaCl2 (2 mM), and MgCl2 (0.8 mM) pH 7.35 with KOH; with the internal pipette solution containing cesium methane sulfonate (140 mM), EGTA (10 mM), and HEPES (10 mM), supplemented with 5 mM Mg^2+ -ATP on the day of the experiment, pH 7.4 with CsOH. For Na^+ and K^+ channel experiments, the external bathing solution contained NaCl (150 mM), KCl (5 mM), MgCl2 (1.1 mM), CaCl2 (2.6 mM), Na-HEPES (10 mM), and glucose (10 mM), pH 7.4; with the internal pipette solution containing KCl (80 mM), K-gluconate (50 mM), HEPES (10 mM), and EGTA (10 mM), pH 7.4 with KOH. Experimental compounds were diluted into the external solution and applied to the soma of cells by local perfusion from large diameter (20-50 μm) glass micropipettes or from a U-tube applicator.
After obtaining a whole-cell recording, Ca^2+ channels were elicited by stepping to test potentials between −40 and +20 mV for 120 msec from the holding potential of −90 mV to determine if the amplitude of the current and clamp control were adequate for evaluation of drug effects. Ca^2+ channel currents were evoked by stepping from a holding potentials between −65 mV and −−55 mV to a test potential of +20 mV for 150 msec every 40 seconds. The amplitude of the Ca^2+ channel currents were compared before and during drug application and drug effects expressed as percent inhibition of the amplitude of control currents.

[2] = target: T2, N-type Ca2+ channels in IMR-32 cells (Homo sapiens, UniProt Q00975); test: Inhibition of N-type calcium flux in IMR-32 cells (Indo-1 fluorescence, nitrendipine present); type: cell-based; settings: for pIC50: IMR-32 cells, 5 μM nitrendipine, K+ depolarization; for inhibition at 1 µM / inhibition at 10 µM: IMR-32
T2 construct: host or cells: IMR-32 cells, differentiated with dibutyryl cAMP and bromodeoxyuridine
Method in brief: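 With L-type flux blocked by 5 μM nitrendipine, N-type Ca2+ entry was read as the Indo-1 emission ratio (400/490 nm, excitation 350 nm) at 30° C after KCl depolarization.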

[3] = tested on: Na+ channels in superior cervical ganglion (SCG) neurons; test: Whole-cell voltage clamp, Na+ current in SCG neurons; type: cell-based, rat; settings: for pIC50: read-out: Inhibition of Na+ Current IC50
Experimental: as §1, §2, §3
(§4) For Na^+ and K^+ channel currents, following the determination of the I/V relationship for each cell in control solution, currents were evoked from a holding potential between −65 and −55 mV by stepping every 10 sec to a test potential of either 0 mV for Na^+ or +50 mV for K^+ current for a duration of 35 msec. Peak inward current was measured for Na^+ and sustained current for K^+ channel currents. […] Test compounds were applied until steady-state block was achieved. Data were expressed as percent inhibition of control amplitudes for Na^+ and K^+ channel currents.

[4] = tested on: K+ channels in superior cervical ganglion (SCG) neurons; test: Whole-cell voltage clamp, K+ current in SCG neurons; type: cell-based, rat; settings: for pIC50: read-out: Inhibition of K+ Current IC50
Experimental: as §1, §2, §3, §4

Compound: CC(C)C[C@@H](NC(=O)N1CCCCCC1)C(=O)N[C@@H](Cc1ccc(OCc2ccccc2)cc1)C(=O)OC(C)(C)C [Example 3, 2(S)-{2(R)-[(Azepane-1-carbonyl)-amino]-4-methyl-pentanoylamino}-3-(4-benzyloxy-phenyl)-propionic acid tert-butyl ester]
inhibition at 10 µM [1]: 69%
inhibition at 1 µM [2]: 53%
inhibition at 10 µM [2]: 90%
pIC50 [2]: 6.00
Inhibition of Na+ Current, % Inhibition at 10 μM [3]: 12%
Inhibition of K+ Current, % Inhibition at 10 μM [4]: 39%

Compound: CC(C)(C)NC(=O)[C@H](Cc1ccc(OCc2ccccc2)cc1)NC(=O)[C@@H]1CC2CCCCC2N1C(=O)N1CCCCCC1 (relative stereo) [Example 161, [S-(R*,R*)]-1-(Azepane-1-carbonyl)-octahydro-indole-2-carboxylic acid [2-(4-benzyloxy-phenyl)-1-tert-butylcarbamoyl-ethyl]-amide]
Inhibition of N-type Ca2+ Current, % Inhibition at 10 μM [1]: 61%
pIC50 [2]: 5.60
Inhibition of Na+ Current, % Inhibition at 10 μM [3]: 42%
pIC50 [3]: 4.85
Inhibition of K+ Current, % Inhibition at 10 μM [4]: 68%
pIC50 [4]: 5.26

Compound: CCCCNC(=S)N[C@@H](CC(C)C)C(=O)N[C@@H](Cc1ccc(OCc2ccccc2)cc1)C(=O)OC(C)(C)C (relative stereo) [Example 49, [S-(R*,R*)]-3-(4-Benzyloxy-phenyl)-2-[2-(3-butyl-thioureido)-4-methyl-pentanoylamino]-propionic acid tert-butyl ester]
Inhibition of N-type Ca2+ Current, % Inhibition at 10 μM [1]: 45%
Inhibition of Calcium Flux in IMR-32 Cells % Inhibition at 1 μM [2]: 77%
Inhibition of Calcium Flux in IMR-32 Cells % Inhibition at 10 μM [2]: 99%
pIC50 [2]: 6.57
Inhibition of Na+ Current, % Inhibition at 10 μM [3]: 6%
Inhibition of K+ Current, % Inhibition at 10 μM [4]: −3%

Compound: CC(C)C[C@H](NC(=O)N1CCCCCC1)C(=O)N[C@@H](Cc1ccc(OCc2ccccc2)cc1)C(=O)NCCO [Example 165, [S-(R*,R*)]-Azepane-1-carboxylic acid {1-[2-(4-benzyloxy-phenyl)-1-(2-hydroxy-ethylcarbamoyl)-ethylcarbamoyl]-3-methyl-butyl}-amide]
inhibition at 10 µM [1]: 84%
pIC50 [1]: 5.63
pIC50 [2]: 5.44
Inhibition of Na+ Current, % Inhibition at 10 μM [3]: 46%
pIC50 [3]: 5.16
Inhibition of K+ Current, % Inhibition at 10 μM [4]: 86%

Compound: CC(C)C[C@H](NC(=O)N1CCCCCC1)C(=O)N[C@@H](Cc1ccc(OCc2cccnc2)cc1)C(=O)OC(C)(C)C [Example 31, [S-(R*,R*)]-2-{2-[(Azepane-1-carbonyl)-amino]-4-methyl-pentanoylamino}-3-[4-(pyridin-3-ylmethoxy)-phenyl]-propionic acid tert-butyl ester]
inhibition at 10 µM [1]: 68%
pIC50 [1]: 5.48
inhibition at 1 µM [2]: 28%
inhibition at 10 µM [2]: 85%
pIC50 [2]: 5.73
Inhibition of Na+ Current, % Inhibition at 10 μM [3]: 21%
pIC50 [3]: 3.73
Inhibition of K+ Current, % Inhibition at 10 μM [4]: 41%
pIC50 [4]: 4.91

More lines, in order of rising pIC50 [2], values ahead:

inhibition at 10 µM [1]: 32%
inhibition at 1 µM [2]: 38%
inhibition at 10 µM [2]: 90%
pIC50 [2]: 5.77
Compound: CC(C)C[C@H](NC(=O)N1CCCCCC1)C(=O)N[C@H](Cc1ccc(OCc2ccccc2)cc1)C(=O)OC(C)(C)C [Example 2, 2(R)-{2(S)-[(Azepane-1-carbonyl)-amino]-4-methyl-pentanoylamino}-3-(4-benzyloxy-phenyl)-propionic acid tert-butyl ester]
Inhibition of Na+ Current, % Inhibition at 10 μM [3]: 35%
Inhibition of K+ Current, % Inhibition at 10 μM [4]: 41%

Inhibition of N-type Ca2+ Current, % Inhibition at 10 μM [1]: 81%
pIC50 [1]: 5.64
Inhibition of Calcium Flux in IMR-32 Cells % Inhibition at 1 μM [2]: 44%
Inhibition of Calcium Flux in IMR-32 Cells % Inhibition at 10 μM [2]: 96%
pIC50 [2]: 5.82
Compound: C[C@H](NC(=O)N1CCCCCC1)C(=O)N[C@@H](Cc1ccc(OCc2ccccc2)cc1)C(=O)OC(C)(C)C (relative stereo) [Example 7, [S-(R*,R*)]-2-{2-[(Azepane-1-carbonyl)-amino]-propionylamino}-3-(4-benzyloxy-phenyl)-propionic acid tert-butyl ester]
Inhibition of Na+ Current, % Inhibition at 10 μM [3]: 52%
Inhibition of K+ Current, % Inhibition at 10 μM [4]: 70%

pIC50 [2]: 5.85
Compound: CC(C)C[C@H](NC(=O)N1CCCCCC1)C(=O)N[C@@H](Cc1ccc(OCc2ccccc2)cc1)C(=O)NCCc1ccco1 [Example 174, [S-(R*,R*)]-Azepane-1-carboxylic acid {1-[2-(4-benzyloxy-phenyl)-1-(2-furan-2-ylethylcarbamoyl)-ethylcarbamoyl]-3-methyl-butyl}-amide]
Inhibition of Na+ Current, % Inhibition at 10 μM [3]: 14%
Inhibition of K+ Current, % Inhibition at 10 μM [4]: 32%

inhibition at 10 µM [1]: 51%
inhibition at 1 µM [2]: 51%
inhibition at 10 µM [2]: 90%
pIC50 [2]: 6.05
Compound: CC(C)C[C@@H](NC(=O)N1CCCCCC1)C(=O)N[C@H](Cc1ccc(OCc2ccccc2)cc1)C(=O)OC(C)(C)C [Example 4, [R-(R*,R*)]-2-{2-(Azepane-1-carbonyl)-amino]-4-methyl-pentanoylamino}-3-(4-benzyloxy-phenyl)-propionic acid tert-butyl ester]
Inhibition of Na+ Current, % Inhibition at 10 μM [3]: 13%
Inhibition of K+ Current, % Inhibition at 10 μM [4]: 38%

inhibition at 10 µM [1]: 28%
pIC50 [2]: 6.08
Compound: CC(C)(C)C[C@H](NC(=O)N1CCCCCC1)C(=O)N[C@@H](Cc1ccc(OCc2ccccc2)cc1)C(=O)NCCN1CCCCC1 [Example 159, [S-(R*,R*)]-Azepane-1-carboxylic acid {1-[2-(4-benzyloxy-phenyl)-1-(2-piperidin-1-ylethylcarbamoyl)-ethylcarbamoyl]-3,3-dimethyl-butyl}-amide]
Inhibition of Na+ Current, % Inhibition at 10 μM [3]: 30%
Inhibition of K+ Current, % Inhibition at 10 μM [4]: 46%

Inhibition of N-type Ca2+ Current, % Inhibition at 10 μM [1]: 81%
Inhibition of Calcium Flux in IMR-32 Cells % Inhibition at 1 μM [2]: 55%
pIC50 [2]: 6.09
Compound: CC(C)C[C@H](NC(=O)N1CCCCCC1)C(=O)N[C@@H](Cc1ccc(OCc2ccccc2)cc1)C(=O)N1CCN(Cc2ccccc2)CC1 (relative stereo) [Example 180, [S-(R*,R*)]-Azepane-1-carboxylic acid {1-[1-(4-benzyloxy-benzyl)-2-(4-benzyl-piperazin-1-yl)-2-oxo-ethylcarbamoyl]-3-methyl-butyl}-amide]
Inhibition of Na+ Current, % Inhibition at 10 μM [3]: 20%
Inhibition of K+ Current, % Inhibition at 10 μM [4]: 60%

inhibition at 10 µM [1]: 38%
inhibition at 1 µM [2]: 56%
inhibition at 10 µM [2]: 83%
pIC50 [2]: 6.20
Compound: CC(C)C[C@H](NC(=O)N1CCCCCC1)C(=O)N[C@@H](Cc1ccc(OCC2CCCCC2)cc1)C(=O)OC(C)(C)C [Example 30, [S-(R*,R*)]-2-{2-[(Azepane-1-carbonyl)-amino]-4-methyl-pentanoylamino}-3-(4-cyclohexylmethoxy-phenyl)-propionic acid tert-butyl ester]
Inhibition of Na+ Current, % Inhibition at 10 μM [3]: 19%
Inhibition of K+ Current, % Inhibition at 10 μM [4]: 8%

Inhibition of Calcium Flux in IMR-32 Cells % Inhibition at 1 μM [2]: 61%
Inhibition of Calcium Flux in IMR-32 Cells % Inhibition at 10 μM [2]: 91%
pIC50 [2]: 6.28
Compound: CC(C)C[C@H](NS(=O)(=O)c1ccc([N+](=O)[O-])cc1)C(=O)N[C@@H](Cc1ccc(OCc2ccccc2)cc1)C(=O)OC(C)(C)C (relative stereo) [Example 39, [S-(R*,R*)]-3-(4-Benzyloxy-phenyl)-2-[4-methyl-2-(4-nitro-benzenesulfonylamino)-pentanoylamino]-propionic acid tert-butyl ester]
Inhibition of Na+ Current, % Inhibition at 10 μM [3]: 28%
Inhibition of K+ Current, % Inhibition at 10 μM [4]: 22%
